In ChEMBL document CHEMBL5247652, “Discovery of Novel Substrate-Competitive Lysine Methyltransferase G9a Inhibitors as Anticancer Agents” (J Med Chem, 2023):
Converted amounts (≈) assume the structure as drawn. The source made the active and inactive calls. The rule behind the calls is not given here.

How the values were obtained:
[1] = Permeability of compound by PAMPA assay; assay type: ADME; conditions: for Papp: read-out: permeability
MOLT-4 [2] = test: Antiproliferative activity against human MOLT-4 cells assessed as inhibition of cell growth with replenishment of medium with compound on day 4 and 7 by ATPlite assay; assay type: functional
[3] = Microsomal stability in human liver microsomes assessed as parent compound remaining after 30 mins in presence of NADPH by LC -MS/MS analysis; assay type: ADME, Microsome; conditions: read-out: Stability
[4] = Aqueous solubility of compound at pH 7.4 measured for 1 hr by UV-plate reader analysis; assay type: physicochemical; conditions: buffer
[5] = Microsomal stability in mouse liver microsomes assessed as parent compound remaining after 30 mins in presence of NADPH by LC -MS/MS analysis; assay type: ADME, Microsome; conditions: read-out: Stability
MOLT-4 [6] = test: Antiproliferative activity against human MOLT-4 cells assessed as inhibition of cell growth with replenishment of medium with compound on day 4 and 7 and measured after 12 days by ATPlite assay; assay type: functional; conditions: MOLT-4, 288 h, time 12 day
[7] = biological target: T1, Histone-lysine N-methyltransferase EHMT2 (Homo sapiens, UniProt Q96KQ7); test: Inhibition of G9a (unknown origin)
T1 sequence (Q96KQ7 whole entry): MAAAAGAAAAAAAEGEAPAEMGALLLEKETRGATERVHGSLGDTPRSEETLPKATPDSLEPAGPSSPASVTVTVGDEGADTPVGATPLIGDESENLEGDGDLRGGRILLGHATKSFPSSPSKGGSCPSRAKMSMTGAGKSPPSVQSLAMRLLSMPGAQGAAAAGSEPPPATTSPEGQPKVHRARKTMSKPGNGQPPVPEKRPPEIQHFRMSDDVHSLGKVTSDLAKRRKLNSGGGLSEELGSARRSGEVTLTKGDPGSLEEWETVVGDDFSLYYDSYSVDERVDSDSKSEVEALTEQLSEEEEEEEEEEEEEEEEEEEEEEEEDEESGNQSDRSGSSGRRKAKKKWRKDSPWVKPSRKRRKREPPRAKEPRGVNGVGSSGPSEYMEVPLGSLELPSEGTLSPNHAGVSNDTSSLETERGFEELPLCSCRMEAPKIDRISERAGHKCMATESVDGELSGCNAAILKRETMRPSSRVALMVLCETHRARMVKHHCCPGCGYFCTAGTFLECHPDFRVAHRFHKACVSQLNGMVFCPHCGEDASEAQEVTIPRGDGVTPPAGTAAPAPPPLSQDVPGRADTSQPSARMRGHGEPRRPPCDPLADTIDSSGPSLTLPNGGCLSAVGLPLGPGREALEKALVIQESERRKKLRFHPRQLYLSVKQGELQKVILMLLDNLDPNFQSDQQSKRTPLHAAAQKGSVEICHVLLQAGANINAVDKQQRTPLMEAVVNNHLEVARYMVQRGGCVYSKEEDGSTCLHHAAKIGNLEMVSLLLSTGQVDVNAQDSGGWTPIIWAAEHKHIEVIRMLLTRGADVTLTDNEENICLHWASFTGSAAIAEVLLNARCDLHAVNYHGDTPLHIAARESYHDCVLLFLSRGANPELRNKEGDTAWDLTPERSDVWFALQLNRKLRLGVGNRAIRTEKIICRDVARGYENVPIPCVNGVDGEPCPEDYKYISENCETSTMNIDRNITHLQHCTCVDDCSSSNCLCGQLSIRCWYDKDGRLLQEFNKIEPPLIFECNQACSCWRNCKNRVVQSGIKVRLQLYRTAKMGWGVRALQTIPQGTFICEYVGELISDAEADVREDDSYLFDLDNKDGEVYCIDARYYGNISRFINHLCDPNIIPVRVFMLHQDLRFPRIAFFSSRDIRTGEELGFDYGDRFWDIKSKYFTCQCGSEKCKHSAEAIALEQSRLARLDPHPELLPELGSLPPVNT

[8] = biological target: T2, Histone-lysine N-methyltransferase EHMT1 (Homo sapiens, UniProt Q9H9B1); test: Inhibition of GLP (unknown origin)
T2 sequence (Q9H9B1 whole entry): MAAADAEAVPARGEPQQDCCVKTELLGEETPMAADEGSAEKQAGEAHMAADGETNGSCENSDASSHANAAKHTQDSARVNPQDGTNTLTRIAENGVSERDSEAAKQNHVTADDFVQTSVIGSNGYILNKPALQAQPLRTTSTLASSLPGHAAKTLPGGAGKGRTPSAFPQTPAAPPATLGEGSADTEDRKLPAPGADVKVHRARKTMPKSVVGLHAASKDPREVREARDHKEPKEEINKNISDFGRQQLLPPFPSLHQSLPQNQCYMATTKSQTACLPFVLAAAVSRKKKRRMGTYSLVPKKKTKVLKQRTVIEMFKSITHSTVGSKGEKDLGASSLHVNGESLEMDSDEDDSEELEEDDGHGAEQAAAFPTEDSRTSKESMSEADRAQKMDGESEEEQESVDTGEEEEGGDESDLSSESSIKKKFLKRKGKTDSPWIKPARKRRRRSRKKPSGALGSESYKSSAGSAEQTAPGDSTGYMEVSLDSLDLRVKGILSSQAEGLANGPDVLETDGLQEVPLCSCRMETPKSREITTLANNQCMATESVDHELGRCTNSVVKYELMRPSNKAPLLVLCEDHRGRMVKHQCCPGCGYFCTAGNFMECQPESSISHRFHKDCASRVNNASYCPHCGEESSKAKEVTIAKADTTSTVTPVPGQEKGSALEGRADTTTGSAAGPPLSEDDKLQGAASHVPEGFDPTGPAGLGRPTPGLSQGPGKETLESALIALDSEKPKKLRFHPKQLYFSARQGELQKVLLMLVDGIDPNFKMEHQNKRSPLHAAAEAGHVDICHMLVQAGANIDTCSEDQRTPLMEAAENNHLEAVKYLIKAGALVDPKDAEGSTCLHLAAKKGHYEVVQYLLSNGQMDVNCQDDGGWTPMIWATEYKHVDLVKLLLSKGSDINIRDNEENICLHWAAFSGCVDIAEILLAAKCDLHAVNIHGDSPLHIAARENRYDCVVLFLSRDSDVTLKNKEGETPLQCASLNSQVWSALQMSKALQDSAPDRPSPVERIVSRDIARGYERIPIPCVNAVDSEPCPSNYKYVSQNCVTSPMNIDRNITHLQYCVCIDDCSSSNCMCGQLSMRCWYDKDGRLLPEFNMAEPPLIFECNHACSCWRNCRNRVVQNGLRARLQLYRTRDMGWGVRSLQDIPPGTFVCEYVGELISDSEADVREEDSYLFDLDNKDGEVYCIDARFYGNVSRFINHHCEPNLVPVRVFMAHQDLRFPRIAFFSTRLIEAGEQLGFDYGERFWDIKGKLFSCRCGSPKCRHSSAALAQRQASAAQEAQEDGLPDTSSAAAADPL

MOLT-4 [9] = test: Downregulation of H3K9 dimethylation in human MOLT-4 cells at 0.1 uM by Western blot analysis; assay type: functional, cell-based
[10] = biological target: T1, Histone-lysine N-methyltransferase EHMT2; test: Inhibition of N-terminal GST-tagged human recombinant G9a (785 to 1210 residues) expressed in baculovirus infected Sf9 cells incubated for 1 hr by AlphaLISA analysis
[11] = Half life in ICR mouse at 25 mg/kg, ip; assay type: ADME, organism-based; conditions: in vivo
[12] = Tmax in ICR mouse at 25 mg/kg, ip; assay type: ADME, organism-based; conditions: in vivo
[13] = AUC (0 to infinity) in ICR mouse at 25 mg/kg, ip; assay type: ADME, organism-based; set-up: dose 25 mg/kg, route ip; conditions: in vivo
MOLT-4 [14] = test: Downregulation of H3K9 dimethylation in human MOLT-4 cells at 1 uM by Western blot analysis; assay type: functional, cell-based
[15] = Cmax in ICR mouse at 25 mg/kg, ip; assay type: ADME, organism-based; set-up: dose 25 mg/kg, route ip; conditions: in vivo
Mus musculus [16] = test: In vivo inhibition of G9a in C57BL/6 mouse liver assessed as H3 histone methylation at 20 to 50 mg/kg, ip measured after 5 days by Westernblot analysis; assay type: functional, organism-based; conditions: dose 20-50 mg/kg, time 5.0 day
[17] = Toxicity in C57BL/6 mouse assessed as body weight loss at 20 to 50 mg/kg, ip measured after 48 weeks; assay type: organism-based; conditions: in vivo, 8064 h, dose 20-50 mg/kg
[18] = Drug concentration in C57BL/6 mouse plasma at 50 mg/kg, ip measured after 4 hrs; assay type: ADME, organism-based
Mus musculus [19] = test: In vivo inhibition of G9a in C57BL/6 mouse liver assessed as reduction in H3K9me2 level at 20 to 50 mg/kg, ip measured after 5 days by Westernblot analysis; assay type: functional, organism-based; conditions: dose 20-50 mg/kg, time 5.0 day
[20] = Drug concentration in C57BL/6 mouse liver at 50 mg/kg, ip measured after 4 hrs; assay type: ADME, organism-based; conditions: read-out: Ct
[21] = Drug concentration in C57BL/6 mouse plasma at 20 mg/kg, ip measured after 4 hrs; assay type: ADME, organism-based
[22] = Drug concentration in C57BL/6 mouse liver at 20 mg/kg, ip measured after 4 hrs; assay type: ADME, organism-based; conditions: read-out: Ct
HCC = test: Antitumor activity against DEN-induced […] HCC tumor in C57BL/6 mouse at 20 to 50 mg/kg, ip measured after 48 weeks; assay type: functional, organism-based; conditions: dose 20-50 mg/kg

Row | SMILES | GI50 (MOLT-4 [2]) | remaining at 0.5 h [3] | solubility at 1 h [4] | remaining at 0.5 h [5] | GI50 (MOLT-4 [6]) | IC50 [10] | further results
1 | COc1cc2c(NC3CCN(C(C)C)CC3)nc(C3CCCCC3)nc2cc1OCCCN1CCCC1 | 0.188 µM | 89.7% | > 200 µM | 67% | 0.188 µM |  | permeability [1]: 1.89 10^-6 cm/s
2 | COc1cc2c(cc1C1=CCN(C)CCC1)N=C(N)C21CCC1 |  |  |  |  |  |  | IC50 [7]: 0.0126 µM; IC50 [8]: 0.0757 µM
3 | CCc1c(C(=O)N[C@@H](CCC2CC2)C(=O)Nc2ccc(C#N)cc2)[nH]c2c1C(=O)CC(C)(C)C2 | 0.22 µM | 51.9% | 4 µM (≈ 1.84 µg/mL) | 40.5% |  | 0.05 µM | 
4 | Cc1ccc(NC(=O)[C@@H](CCC2CC2)NC(=O)c2[nH]c3c(c2C)C(=O)CC(C)(C)C3)cn1 | 0.176 µM | 40.2% | 50.8 µM (≈ 22.2 µg/mL) | 38.1% |  | 0.05 µM | Papp [1]: 9.64 ×10⁻⁶ cm/s
5 | CC(C)c1c(C(=O)N[C@@H](CCC2CC2)C(=O)Nc2ccc(C#N)cc2)[nH]c2c1C(=O)CC(C)(C)C2 | 0.0913 µM | 1.8% | 3.7 µM (≈ 1.76 µg/mL) | 70.8% |  | 0.055 µM | 

The next lines start with results.

Row | GI50 (MOLT-4 [2]) | remaining at 0.5 h [3] | solubility at 1 h [4] | remaining at 0.5 h [5] | GI50 (MOLT-4 [6]) | IC50 [10] | SMILES | further results
6 | 0.0213 µM | 55.5% | 13.6 µM (≈ 6.07 µg/mL) | 19.3% | 0.0213 µM | 0.027 µM | Cc1c(C(=O)N[C@@H](CCC2CC2)C(=O)Nc2ccc(C#N)cc2)[nH]c2c1C(=O)CC(C)(C)C2 | Papp [1]: 3.12 ×10⁻⁶ cm/s; Activity (MOLT-4 [9]): Active; IC50 ([10]; sf9): 0.027 µM
7 |  |  |  |  | 1.79 µM | 2.1 µM | Cc1c(C(=O)N[C@H](CCC2CC2)C(=O)Nc2ccccc2)[nH]c2c1C(=O)CC(C)(C)C2 | half-life [11]: 0.58 h; Tmax [12]: 4 h; AUC(0-inf) [13]: 10.3 µM·h; Activity (MOLT-4 [14]): inactive; Cmax [15]: 4.14 µM
8 |  |  |  |  | 2.37 µM |  | Cc1c(C(=O)N[C@H](CCC2CC2)C(=O)Nc2ccc(C#N)cc2)[nH]c2c1C(=O)CC(C)(C)C2 | half-life [11]: 1.4 h; Tmax [12]: 4 h; AUC(0-inf) [13]: 418 µM·h; inhibition (Mus musculus [16]): inactive; Activity (MOLT-4 [14]): inactive; IC50 [7]: 0.027 µM; Activity [17]: Non-Toxic; Cmax [15]: 42.4 µM; concentration at 4 h [18]: 18.9 µM; Activity (Mus musculus [19]): Active; concentration at 4 h [20]: 46.9 µM; concentration at 4 h [21]: 9.6 µM; IC50 [8]: 0.053 µM; concentration at 4 h [22]: 23.5 µM; Activity (HCC): Active
9 | 0.0615 µM | 36.5% | 32.4 µM (≈ 13.7 µg/mL) | 7.1% |  | 0.0396 µM | Cc1c(C(=O)N[C@@H](CCC2CC2)C(=O)Nc2ccccc2)[nH]c2c1C(=O)CC(C)(C)C2 | Papp [1]: 6.35 ×10⁻⁶ cm/s; Activity (MOLT-4 [9]): Active
10 |  |  |  |  | 0.278 µM | 0.0667 µM | Cc1c(C(=O)NC(CCC2CC2)C(=O)Nc2ccc(C#N)cc2)[nH]c2c1C(=O)CC(C)(C)C2 (racemic) | 
11 |  |  |  |  | 1.79 µM |  | Cc1c(C(=O)NC(CCC2CC2)C(=O)Nc2ccccc2)[nH]c2c1C(=O)CC(C)(C)C2 (racemic) | 
